Reference: US10857236B2, “Sustained release nanocomposite, a process for producing the same and use thereof” (SZEGEDI TUDOMÁNYEGYETEM, priority 2015, dated 2020)

How the values were obtained:
[1] = stability study of KYNA in MQ with and without 150 mM NaCl and in buffer; conditions: pH 7.4
Description: New types of nanocomposites have been prepared within physiological conditions, in the nano-size range for the purpose of crossing the pharmaceutically active ingredients through the blood-brain barrier. […] The amount of the material constituting the composites, than the conditions of the preparation were determined. Stability studies were performed for the active ingredients by ensuring various conditions (pH=3 to 8 in physiological solution and without said physiological solution, in both phosphate and HEPES buffers). […]
The release tests were made in case of KYNA in PBS buffer at pH=7.4. (physiological solution). […]

[2] = in vitro drug release in Franz cell (vertical diffusion cell), kinetic models; type: physicochemical; conditions: IBU containing composites
Description: FIG. 7: A schematic figure of the Franz-cell (vertical diffusion cell) with which the in vitro drug release experiments were carried out. […] The active ingredient release tests were made at two temperatures: at 25 and 37.5° C. (FIGS. 7 and 8).

[3] = system: somatosensory evoked potentials (SEPs); experiment: in vivo amplitudes of somatosensory evoked potentials after peripheral administration; design: species or system male Wistar rats; conditions: intraperitoneal administration, 300 mg/kg, n=5
Source text: The preparation of the corresponding composite (FIG. 1) was accomplished with the following parameters. […] At a neutral pH the compact structure of the protein offers an opportunity to enclose large amount of kynurenic acid. In the “heart shaped” conformation of the BSA, the hydrophobic parts directed inside the conformation can form hydrogen-bridge, hydrophobic, furthermore ππ interactions with the KYNA molecule. […] After the in vitro drug release experiments the KYNA permeability was investigated with the help of an in vitro blood-brain barrier model. […] The animal experiments were performed on male Wistar rats (300 g, n=30). During the tests the effect of the peripherally administered KYNA was investigated in the central nervous system.

[4] = system: microvessel rat brain endothelial cells; experiment: KYNA permeability in in vitro blood-brain barrier model; type: in vitro ADME; conditions: 20 μM KYNA final concentration, 1 hour, corrected for empty filters
Description: The permeability of KYNA through the blood-brain barrier from BSA/KYNA/PAH nanocapsules was determined by means of an in vitro blood-brain barrier model. The description of the model is the following: microvessel rat brain endothelial cells were isolated from 2 to 3 weeks old Wistar animals by means of a method described earlier (Wilhelm és munkatársai, 2011). After the removal of the meninges, the brain tissue was dissectioned to small pieces, then it was digested by type 2 collagenase and collagenase/dispase, finally it was centrifuged on percoll gradient. The microvessel fragments were plated on collagenIV/fibronectin-coated Petri dishes and were cultured in DMEM/F12 in the presence of plasma serum and growth factors. […]
From these samples the concentration of KYNA was determined using an Agilent 1100 HPLC-MS system (Agilent Technologies, Santa Clara, Calif., USA).
To calculate the permeability coefficient the following formulae were applied: PappdQ/(dT×A×C0), wherein dQ stands for the crossed amount of the material, dT stands for the incubation period of time (1 hour), A stands for the surface of the filter and C0 stands for the starting concentration (20 μM). The values thus calculated were compared to the values measured on empty (not containing cells) filters according to the following method: […]).

For `NCCc1ccc(O)c(O)c1` [DOPA, dopamine], the demonstrated stability until [1] was 72 h.
In the case of `CC(C)Cc1ccc(C(C)C(=O)O)cc1` (stereo not drawn) [IBU, ibuprofen], the “Release rate, depending on the concentration, first-order kd” value ([2]; 25° C.) is reported as 0.0064 s⁻¹, the “Release rate, diffusion controlled, Higuchi kd” value ([2]; 25° C.) is reported as 5.6 * 10^−0 s^−1/2 and the “Release rate, not depending on the concentration, zero-order kd” value ([2]; 25° C.) is reported as 0.5 s⁻¹. The “Release rate, depending on the concentration, first-order kd” value ([2]; 37.5° C.) was 0.011 s⁻¹, the “Release rate, diffusion controlled, Higuchi kd” value ([2]; 37.5° C.) was 8.7 * 10^−0 s^−1/2 and the “Release rate, not depending on the concentration, zero-order kd” value ([2]; 37.5° C.) was 0.77 s⁻¹.
With `Nc1ccccc1C(=O)C[C@H](N)C(=O)O` [L-KYN, L-kynurenin] the “change of amplitude of somatosensory evoked potentials” value [3] was “no significant change”.
In the case of `O=C([O-])c1ccccc1-c1c2ccc(=O)cc-2oc2cc([O-])ccc12.[Na+].[Na+]` [Na-fluoresceine], the “permeability coefficient Pe” value [4] is reported as 2.96*10^−6 cm/s.
